# Assay results taken from patent US8697667B2, “Cyclodextrin-modified polyamines for delivery of therapeutic molecules” (Rutgers, The State University of New Jersey, priority 2010, dated 2014).
# Where two headings read alike, the source gives them in different places.
# Key:
# glioblastoma cells = test: Annexin-V/Propidium Iodide apoptosis assay; format: cell-based; details: combined with siRNA against EGFRvIII (200 nM), polymer 100 μM; SAHA 5 μM, erlotinib 30 μM; versus individual treatments
# Excerpt: Cells were harvested by trypsinization and stained using an Annexin V FITC Apoptosis Detection kit (Roche, Cambridge, Mass.) according to the manufacturer's protocol. The stained cells were immediately analyzed by flow cytometry (FACScan; Becton Dickinson, Franklin Lake, N.J.). Early apoptotic cells with exposed phosphatidylserine but intact cell membranes bound to Annexin V-FITC but excluded propidium iodide. Cells in necrotic or late apoptotic stages were labeled with both Annexin V-FITC and propidium iodide.
# Aqueous solubility = format: physicochemical
SMILES,induction of apoptosis (Annexin-V-FITC-positive cells) (glioblastoma cells),aqueous solubility (Aqueous solubility) [g/100 mL],aqueous solubility (Aqueous solubility; drug loaded into / complexed with β-CD cavity) [mg/100 mL]
"O=C(CCCCCCC(=O)Nc1ccccc1)NO [SAHA, suberoylanilide hydroxamic acid]",greater induction of apoptosis,–,–
"OC[C@H]1O[C@@H]2O[C@H]3[C@H](O)[C@@H](O)[C@@H](O[C@H]4[C@H](O)[C@@H](O)[C@@H](O[C@H]5[C@H](O)[C@@H](O)[C@@H](O[C@H]6[C@H](O)[C@@H](O)[C@@H](O[C@H]7[C@H](O)[C@@H](O)[C@@H](O[C@H]8[C@H](O)[C@@H](O)[C@@H](O[C@H]1[C@H](O)[C@H]2O)O[C@@H]8CO)O[C@@H]7CO)O[C@@H]6CO)O[C@@H]5CO)O[C@@H]4CO)O[C@@H]3CO [CD, β-cyclodextrin]",–,< 1.8,–
"C#Cc1cccc(Nc2ncnc3cc(OCCOC)c(OCCOC)cc23)c1 [erlotinib, N-(3-ethynylphenyl)-6,7-bis(2-methoxyethoxy)quinazolin-4-amine]",cooperative induction of apoptosis,–,178
